From patent US12410164B2, “Heterocyclic compounds and medical use thereof” (FONDAZIONE TELETHON, priority 2018, dated 2025)
Entries after “also recorded” stand apart in the source; their conditions may differ.

Key:
Type in all cases: cell-based
[1] = system: G542X-CFTR; assay: HS-YFP assay in null CFBE41o− cells transfected with G542X-CFTR
Method: To assess the function and pharmacological sensitivity of G542X-CFTR mutant, inventors used the null version of CFBE41o− cells, i.e. cells with negligible expression of endogenous CFTR and without HS-YFP. Such cells were transiently transfected with the plasmid coding for HS-YFP alone or in combination with: empty plasmid, plasmid coding for wild type CFTR, or plasmid coding for G542X-CFTR. For transfection, cells were seeded in 96-well microplates (30,000 cells/well) in 150 μl of antibiotic-free culture medium. After 24 hours, cells were transfected with the desired plasmids. For each well, 0.2 μg of total plasmid DNA and 0.5 μl of Lipofectamine 2000 (Invitrogen) were first pre-mixed in 50 μl of OPTIMEM (Invitrogen) to generate transfection complexes (60 minutes at room temperature), and then added to the cells. After 24 hour, the complexes were removed by replacement with fresh culture medium. The HS-YFP functional assay was performed after further 24 hours.
To assess the ability of compounds of present invention to improve the rescue of premature stop codon (class I) mutations, we carried out experiments on G542X-CFTR (FIG. 7). Null CFBE41o− cells, devoid of endogenous CFTR expression, were transiently transfected with empty, wild type CFTR or G542X-CFTR plasmids. All cells also received the HS-YFP plasmid to allow functional determination of CFTR-dependent anion transport. […] Where indicated, cells with G542X-CFTR were also treated with G418 (0.5 mg/ml) for 24 hr to induce readthrough of the stop codon mutation, with and without correctors (VX-809 and/or PP028, labeled as VX and PP). […] The activity resulting from wild type CFTR is also shown for comparison.

[2] = biological target: T1, F508del-CFTR (Homo sapiens, UniProt P13569, DEL508-508); assay: Analysis of F508del-CFTR localization by immunofluorescence in CFBE41o− cells; set-up: expressed in transfected cells; host or cells: CFBE41o- cells with expression of F508del-CFTR and HS-YFP (generated as in Sondo et al. 2011); conditions: compound 10 μM plus VX-809 1 μM, 24 hr
T1 sequence (P13569 with tags, fused parts or gaps DEL508-508): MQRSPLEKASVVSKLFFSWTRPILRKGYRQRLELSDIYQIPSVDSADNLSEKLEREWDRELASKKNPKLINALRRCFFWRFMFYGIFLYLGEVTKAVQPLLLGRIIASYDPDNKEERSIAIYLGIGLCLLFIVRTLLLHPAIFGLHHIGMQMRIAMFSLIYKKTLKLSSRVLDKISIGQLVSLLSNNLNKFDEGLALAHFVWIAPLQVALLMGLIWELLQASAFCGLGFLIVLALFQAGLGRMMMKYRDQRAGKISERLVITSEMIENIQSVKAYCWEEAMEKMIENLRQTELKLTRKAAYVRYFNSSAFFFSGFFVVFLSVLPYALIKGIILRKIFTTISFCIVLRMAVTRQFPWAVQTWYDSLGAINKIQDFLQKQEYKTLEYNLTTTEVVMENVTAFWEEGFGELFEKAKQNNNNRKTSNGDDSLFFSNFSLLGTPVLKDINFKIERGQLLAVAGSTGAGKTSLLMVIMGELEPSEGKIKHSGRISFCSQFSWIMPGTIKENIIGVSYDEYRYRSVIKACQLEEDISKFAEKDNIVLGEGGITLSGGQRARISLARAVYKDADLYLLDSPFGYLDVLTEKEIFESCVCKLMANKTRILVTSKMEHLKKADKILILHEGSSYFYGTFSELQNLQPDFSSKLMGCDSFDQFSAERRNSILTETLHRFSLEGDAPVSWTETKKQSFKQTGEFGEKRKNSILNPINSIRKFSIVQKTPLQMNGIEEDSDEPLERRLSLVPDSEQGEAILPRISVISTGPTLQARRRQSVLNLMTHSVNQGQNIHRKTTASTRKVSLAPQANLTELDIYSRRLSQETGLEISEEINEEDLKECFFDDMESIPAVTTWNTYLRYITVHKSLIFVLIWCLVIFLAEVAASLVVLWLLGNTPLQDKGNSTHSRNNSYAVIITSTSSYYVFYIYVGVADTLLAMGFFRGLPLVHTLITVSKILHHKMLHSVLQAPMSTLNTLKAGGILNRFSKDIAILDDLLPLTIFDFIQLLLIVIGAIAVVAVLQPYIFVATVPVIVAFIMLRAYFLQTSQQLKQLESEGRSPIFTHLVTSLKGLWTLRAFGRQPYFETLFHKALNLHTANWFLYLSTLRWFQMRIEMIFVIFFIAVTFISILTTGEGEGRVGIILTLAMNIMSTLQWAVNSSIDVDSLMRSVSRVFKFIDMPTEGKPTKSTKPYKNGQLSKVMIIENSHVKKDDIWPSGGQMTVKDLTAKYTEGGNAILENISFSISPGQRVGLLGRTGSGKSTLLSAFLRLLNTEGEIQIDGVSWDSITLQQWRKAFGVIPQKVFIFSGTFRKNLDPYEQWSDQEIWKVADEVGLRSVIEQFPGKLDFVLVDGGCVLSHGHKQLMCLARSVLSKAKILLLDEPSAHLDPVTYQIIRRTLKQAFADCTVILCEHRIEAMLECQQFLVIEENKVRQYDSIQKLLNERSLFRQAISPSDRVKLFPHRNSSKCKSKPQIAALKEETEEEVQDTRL
Method: CFBE41o− cells were seeded in a 12-well μ-chamber (81201, Ibidi) at a density of 25.000 cells per well and treated with compounds for 24 hr. Cells were then rinsed with PBS and fixed by adding 100 μl per well of 10% neutral buffered formalin for 5 minutes at room temperature. After 3 washes with 300 μl of PBS, cells were permeabilized with PBS-Triton X-100 0.3% for 5 min, blocked with PBS-BSA 1% for 2 hr, and incubated overnight at 4° C. with 100 μl of primary antibody diluted in blocking solution. The CFTR antibody was ab570 mouse IgG1 (University of North Carolina at Chapel Hill, and Cystic Fibrosis Foundation Therapeutics, see Cui L, et al. J. Mol Biol 2007, 365, 981-994) diluted at 1:250. Following incubation with primary antibody, cells were rinsed three times with PBS and incubated with 100 μl of a solution of secondary goat anti-mouse Alexa Fluor-546 antibodies (Invitrogen A-11030) diluted in PBS-BSA 1% for 1 hour in the dark. After three further washes in PBS, cells were covered with mounting medium and coverslip, and then analysed using a laser-scanning confocal microscope SPE (Leica Microsystems).
As a second type of experiment, the localization of F508del-CFTR protein was evaluated by immunofluorescence. Cells were treated with compounds, then fixed and immunostained with antibodies against CFTR. Images were taken with a confocal microscope.

[3] = biological target: T1, F508del-CFTR; assay: Transepithelial short-circuit current in primary bronchial epithelial cells of F508del homozygous CF patient; set-up: endogenous in cells; host or cells: primary bronchial and nasal epithelial cells from CF patients homozygous for F508del
Method: The culture and functional study of human primary nasal and bronchial epithelial cells have been described in detail above (Scudieri P, et al. J Physiol. 2012, 590, 6141-6155). Briefly, nasal epithelial cells were taken after informed consent using the “brushing” technique. […] With this mode, the transepithelial potential difference is locked to zero and the resulting current, supplied by the Voltage Clamp is recorded by an AD/DA converter (PowerLab, ADInstruments).
The cells were grown in such a way as to generate differentiated epithelia on porous supports (Snapwell). […] As a channel-protein able to mediate a chloride ion flux, CFTR activity is detected as a transepithelial ionic current. […]

SMILES	CFTR activity (QR) in G542X-CFTR cells versus G418 alone ([1]; G418 0.5 mg/ml plus VX-809 1 μM or PP028 10 μM)	comparison of co-treatments with G418 in G542X-CFTR cells ([1]; PP028 10 μM versus VX-809 1 μM, each plus G418)	F508del-CFTR localization [2]	F508del-CFTR activity (current blocked by inh-172) ([3]; compound 10 μM alone, 24 h incubation)	F508del-CFTR activity (current blocked by inh-172) of combination ([3]; compound 10 μM plus VX-809 1 μM, 24 h)
CCOC(=O)c1c(Br)c2c(n1Cc1cccc(C)c1)-c1[nH]c(=O)c(S(=O)(=O)c3ccccc3)cc1CC2 [PP028, Ethyl 3-bromo 1-(3-methylbenzyl)-8-oxo-7-(phenylsulfonyl)-4,5,8,9-tetrahydro-1H-pyrrolo[3,2-h]quinoline-2-carboxylate]	further increased activity	significantly more effective than VX-809	cause appearance of F508del-CFTR at the cell periphery		
CCOC(=O)c1c(Br)c2c(n1Cc1ccc(C)cc1)-c1[nH]c(=O)c(S(=O)(=O)c3ccccc3)cc1CC2 [PP008, Ethyl 7-(benzenesulfonyl)-3-bromo-1-[(4-methylphenyl)methyl]-8-oxo-4,5,8,9-tetrahydro-1H-pyrrolo[3,2-h]quinoline-2-carboxylate]				significantly increased; also recorded: significant increase in current	significantly greater than the sum of the effects of the individual correctors
